Columns and labels:
bermudagrass = test: Test C pre-/postemergence herbicide test; type: in vivo, Cynodon dactylon; conditions: for Plant response rating, Bermudagrass: preemergence; for Bermudagrass plant response rating: Preemergence, 500 g ai/ha
Summary of the method: (§1)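 Preemergence: seeds planted and treated with compound in non-phytotoxic solvent with surfactant; postemergence: plants at 2 to 18 cm (1- to 4-leaf stage) sprayed likewise. Kept in greenhouse 12 to 14 days, then visually rated against controls, 0 (no effect) to 100 (complete control).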

cocklebur = test: Test C pre-/postemergence herbicide test; type: in vivo, Xanthium strumarium; conditions: for Plant response rating, Cocklebur: preemergence; for Cocklebur plant response rating: Preemergence, 500 g ai/ha, scale 0 to 100, 0 no effect, 100 complete control
Summary of the method: as §1

woolly cupgrass = test: Test C pre-/postemergence herbicide test; type: in vivo, Eriochloa villosa; conditions: for Plant response rating, Cupgrass, Woolly: preemergence; for Cupgrass, Woolly plant response rating: Preemergence, scale 0 to 100, 0 no effect, 100 complete control
Summary of the method: as §1

goosegrass = test: Test C pre-/postemergence herbicide test; type: in vivo, Eleusine indica; conditions: for Plant response rating, Goosegrass: preemergence; for Goosegrass plant response rating: Preemergence, scale 0 to 100, 0 no effect, 100 complete control
Summary of the method: as §1

kochia = test: Test C pre-/postemergence herbicide test; type: in vivo, Kochia scoparia; conditions: for Plant response rating, Kochia: preemergence; for Kochia plant response rating: Preemergence, scale 0 to 100, 0 no effect, 100 complete control
Summary of the method: as §1

lambsquarters = test: Test C pre-/postemergence herbicide test; type: in vivo, Chenopodium album; conditions: for Plant response rating, Lambsquarters: preemergence; for Lambsquarters plant response rating: Preemergence, scale 0 to 100, 0 no effect, 100 complete control
Summary of the method: as §1

morningglory = test: Test C pre-/postemergence herbicide test; type: in vivo, Ipomoea coccinea; parameters: key to Plant response rating, Morningglory: 0 = no effect, 100 = complete control; conditions: for Plant response rating, Morningglory: preemergence; for Morningglory plant response rating: Preemergence, scale 0 to 100, 0 no effect, 100 complete control
Summary of the method: as §1

[1] = test system: smallflower umbrella sedge; test: Test C flooded paddy test; type: in vivo, Cyperus difformis; conditions: for Plant response rating, Sedge, Umbrella: 500 g ai/ha, visual rating after 12 to 14 days
ducksalad = test: Test C flooded paddy test; type: in vivo, Heteranthera limosa; conditions: for Plant response rating, Ducksalad: 500 g ai/ha, visual rating after 12 to 14 days
[2] = 62 g ai/ha, scale 0 to 100, 0 no effect, 100 complete control
[3] = 125 g ai/ha, scale 0 (no effect) to 100 (complete control), visual, 12 to 14 days
[4] = 250 g ai/ha, scale 0 to 100 (0 no effect, 100 complete control), visual, 12 to 14 days
[5] = scale 0 to 100, 0 no effect, 100 complete control
[6] = 62 g ai/ha, scale 0 to 100 (0 no effect, 100 complete control)
[7] = 125 g ai/ha, scale 0 to 100 (0 no effect, 100 complete control)
[8] = 250 g ai/ha, scale of 0 to 100, 0 is no effect, 100 is complete control
[9] = scale 0 to 100 (0 no effect, 100 complete control)
[10] = 500 g ai/ha, scale 0 to 100 (0 no effect, 100 complete control), visual, 12 to 14 days

CCNC(=O)c1ccnc(NC(=O)c2cc(C(C)(C)C)nn2CC)c1 [Compound 152]
Plant response rating, Bermudagrass (bermudagrass; [2]): 85
Plant response rating, Bermudagrass (bermudagrass; [3]): 90
Plant response rating, Bermudagrass (bermudagrass; [4]): 100
Bermudagrass plant response rating (bermudagrass; [5]): 100
Plant response rating, Cocklebur (cocklebur; [3]): 65
Plant response rating, Cocklebur (cocklebur; [4]): 65
Cocklebur plant response rating (cocklebur): 100
Plant response rating, Cupgrass, Woolly (woolly cupgrass; 62 g ai/ha, scale 0 to 100): 40
Plant response rating, Cupgrass, Woolly (woolly cupgrass; [3]): 50
Plant response rating, Cupgrass, Woolly (woolly cupgrass; [4]): 100
Cupgrass, Woolly plant response rating (woolly cupgrass; 500 g ai/ha): 100
Plant response rating, Goosegrass (goosegrass; 62 g ai/ha, scale 0 to 100): 80
Plant response rating, Goosegrass (goosegrass; [3]): 100
Goosegrass plant response rating (goosegrass; 500 g ai/ha): 100
Plant response rating, Kochia (kochia; 62 g ai/ha, scale 0 to 100): 100
Plant response rating, Kochia (kochia; [3]): 100
Kochia plant response rating (kochia; 500 g ai/ha): 100
Plant response rating, Lambsquarters (lambsquarters; 62 g ai/ha, scale 0 to 100): 100
Plant response rating, Lambsquarters (lambsquarters; [3]): 100
Lambsquarters plant response rating (lambsquarters; 500 g ai/ha): 100
Plant response rating, Morningglory (morningglory; 62 g ai/ha, scale 0 to 100): 20
Plant response rating, Morningglory (morningglory; [3]): 80
Morningglory plant response rating (morningglory; 500 g ai/ha): 100
Sedge, Umbrella plant response rating [1, 6]: 80
Sedge, Umbrella plant response rating [1, 7]: 80
Sedge, Umbrella plant response rating [1, 8]: 85
Plant response rating, Sedge, Umbrella [1, 9]: 85
Ducksalad plant response rating (ducksalad; [6]): 85
Ducksalad plant response rating (ducksalad; [7]): 85
Ducksalad plant response rating (ducksalad; [8]): 85
Plant response rating, Ducksalad (ducksalad; [9]): 85

CCc1nn(C(C)(C)C)cc1C(=O)Nc1cccc(C(C)=NO)c1 [Compound 188]
Plant response rating, Bermudagrass (bermudagrass; [2]): 75
Plant response rating, Bermudagrass (bermudagrass; [3]): 100
Plant response rating, Bermudagrass (bermudagrass; [4]): 100
Bermudagrass plant response rating (bermudagrass; [5]): 100
Plant response rating, Cocklebur (cocklebur; 62 g ai/ha, scale 0 to 100): 0
Plant response rating, Cocklebur (cocklebur; [3]): 0
Plant response rating, Cocklebur (cocklebur; [4]): 0
Cocklebur plant response rating (cocklebur): 0
Plant response rating, Cupgrass, Woolly (woolly cupgrass; 62 g ai/ha, scale 0 to 100): 0
Plant response rating, Cupgrass, Woolly (woolly cupgrass; [3]): 60
Plant response rating, Cupgrass, Woolly (woolly cupgrass; [4]): 70
Cupgrass, Woolly plant response rating (woolly cupgrass; 500 g ai/ha): 75
Plant response rating, Goosegrass (goosegrass; 62 g ai/ha, scale 0 to 100): 15
Plant response rating, Goosegrass (goosegrass; [3]): 70
Goosegrass plant response rating (goosegrass; 500 g ai/ha): 90
Plant response rating, Kochia (kochia; 62 g ai/ha, scale 0 to 100): 0
Plant response rating, Kochia (kochia; [3]): 0
Kochia plant response rating (kochia; 500 g ai/ha): 95
Plant response rating, Lambsquarters (lambsquarters; 62 g ai/ha, scale 0 to 100): 95
Plant response rating, Lambsquarters (lambsquarters; [3]): 100
Lambsquarters plant response rating (lambsquarters; 500 g ai/ha): 100
Plant response rating, Morningglory (morningglory; 62 g ai/ha, scale 0 to 100): 0
Morningglory plant response rating (morningglory; 500 g ai/ha): 75
Sedge, Umbrella plant response rating [1, 6]: 30
Sedge, Umbrella plant response rating [1, 7]: 75
Sedge, Umbrella plant response rating [1, 8]: 80
Plant response rating, Sedge, Umbrella [1, 9]: 85
Ducksalad plant response rating (ducksalad; [6]): 20
Ducksalad plant response rating (ducksalad; [7]): 65
Ducksalad plant response rating (ducksalad; [8]): 75
Plant response rating, Ducksalad (ducksalad; [9]): 85

CCn1nc(C2(C)CC2)cc1C(=O)Nc1cccc(C(=O)N2CC=CC2)c1 [Compound 304]
Plant response rating, Bermudagrass (bermudagrass; [2]): 5
Plant response rating, Bermudagrass (bermudagrass; [3]): 70
Plant response rating, Bermudagrass (bermudagrass; 250 g ai/ha, scale 0-100): 100
Bermudagrass plant response rating (bermudagrass; [5]): 100
Plant response rating, Cocklebur (cocklebur; 62 g ai/ha, scale 0 to 100): 0
Plant response rating, Cocklebur (cocklebur; [3]): 0
Plant response rating, Cocklebur (cocklebur; 250 g ai/ha, scale 0-100): 0
Cocklebur plant response rating (cocklebur): 0
Plant response rating, Cupgrass, Woolly (woolly cupgrass; 62 g ai/ha, scale 0 to 100): 5
Plant response rating, Cupgrass, Woolly (woolly cupgrass; [3]): 10
Plant response rating, Cupgrass, Woolly (woolly cupgrass; 250 g ai/ha, scale 0-100): 60
Plant response rating, Cupgrass, Woolly (woolly cupgrass; [10]): 80
Plant response rating, Goosegrass (goosegrass; 62 g ai/ha, scale 0 to 100): 45
Plant response rating, Goosegrass (goosegrass; [3]): 85
Plant response rating, Goosegrass (goosegrass; 250 g ai/ha, scale 0-100): 90
Plant response rating, Goosegrass (goosegrass; [10]): 100
Plant response rating, Kochia (kochia; [3]): 80
Plant response rating, Kochia (kochia; 250 g ai/ha, scale 0-100): 85
Plant response rating, Kochia (kochia; [10]): 100
Plant response rating, Lambsquarters (lambsquarters; 62 g ai/ha, scale 0 to 100): 0
Plant response rating, Lambsquarters (lambsquarters; [3]): 100
Plant response rating, Lambsquarters (lambsquarters; 250 g ai/ha, scale 0-100): 100
Plant response rating, Lambsquarters (lambsquarters; [10]): 100
Plant response rating, Morningglory (morningglory; 62 g ai/ha, scale 0 to 100): 0
Plant response rating, Morningglory (morningglory; [3]): 10
Plant response rating, Morningglory (morningglory; 250 g ai/ha, scale 0-100): 10
Plant response rating, Morningglory (morningglory; [10]): 10
Sedge, Umbrella plant response rating ([1]; 62 g ai/ha, scale 0 to 100): 75
Sedge, Umbrella plant response rating [1, 7]: 90
Sedge, Umbrella plant response rating [1, 8]: 95
Plant response rating, Sedge, Umbrella [1, 9]: 95
Ducksalad plant response rating (ducksalad; 62 g ai/ha, scale 0 to 100): 65
Ducksalad plant response rating (ducksalad; [7]): 85
Ducksalad plant response rating (ducksalad; [8]): 95
Plant response rating, Ducksalad (ducksalad; [9]): 95

Source: patent US20060069132A1, “Azolecarboxamide herbicides” (priority 2004, published 2006)
